In experiment [1] the target is T1, P. aeruginosa Alg44PilZ (His-MBP-Alg44PilZ) (Pseudomonas aeruginosa, UniProt Q9HY69).
T1 construct: His-MBP-Alg44PilZ was varied from 100 μM to 6 nM; made in house; host or cells: E. coli BL21(DE3)
The experiment in a line: biochemical. Type of experiment: binding. The text has this: DRaCALA exploits the ability of nitrocellulose membranes to preferentially sequester proteins over small molecule ligands. When a mixture of protein and radiolabeled ligand is spotted onto a dry nitrocellulose membrane, protein and bound ligand are immobilized at the site of contact while free ligand is mobilized by capillary action with the liquid phase (FIG. 1A). DRaCALA is a rapid assay, as the capillary action can be completed in less than 5 seconds. […] Because capillary action distributes the unbound ligand throughout the mobile phase, the calculation for the fraction bound (FB) can be corrected for this background (see below for edge effects at the solvent front and annulation of the protein). Therefore, FB is defined by the equation in FIG. 1B, where Iinner is the intensity of signal in the area with protein (inner circle) and Itotal is the total signal of the entire sample (outer circle). The Iinner signal consists of both ligand bound to protein and unbound ligand that has not mobilized beyond the area of the inner circle, which we define as Ibackground. Ibackground can be calculated by subtracting the signal intensity of the Iinner from the total ligand Itotal and adjusting for the relative areas of the inner (Ainner) and outer circles (Atotal) (FIG. 1B).
(§1) Radiolabeled ligands were incubated with each of the proteins and the mixtures were spotted on nitrocellulose. After spreading by capillary action, membranes were dried and quantitated by phosphorimager. […] The specificity of Alg44PilZ binding to cdiGMP was further tested by competition with excess unlabeled nucleotides (400-fold molar excess relative to the Alg44PilZ protein).
Kd can be measured by altering either the protein or ligand concentrations in titration experiments; since DRaCALA detects only the ligand mobility, ligand concentrations can be always held constant. […] Since the assay is completed in less than 5 seconds, DRaCALA can also be used to determine the koff for those protein-ligand complexes with slower off rates. koff was determined for cdiGMP and Alg44PilZ by spotting at the indicated time points after the addition of 1 mM unlabeled cdiGMP to a pre-incubated mixture of Alg44PilZ and ^32P-cdiGMP (FIG. 3C). […] Both edge and annulation effects are explained in FIG. 8. The edge effect is due to evaporation of the solvent during the time of the experiment, and is dependent on the humidity of the local environment around the nitrocellulose support. The evaporation results in a smaller total area (Atotal observed in FIG. 8A) and leads to an increased value in the calculated Ibackground. As a secondary correction for the edge effect, the fraction bound determined for spotted ligand in the absence of protein can be subtracted from all samples in parallel (FIG. 8B).

A further experiment concerns the target T2, E. coli CRP (Escherichia coli, UniProt P0ACJ8).
T2 construct: His; made in house
The experiment in a line: DRaCALA binding of radiolabeled nucleotides to purified CRP. The settings on record: 20 μM purified protein; 500 nM 14C-cAMP, 4 nM 32P-ATP or 4 nM 32P-cdiGMP. The method, then: as §1
(§2) Protein or whole cell lysates in 1× cdiGMP binding buffer (20 μl) was mixed with 4 nM of radiolabeled nucleotide and allowed to incubate for 10 minutes at room temperature. Radiolabeled nucleotide was competed away by cold nucleotides in concentrations and for times indicated. Purified proteins were tested in technical replicates. Whole cell lysates in FIG. 4 and FIG. 12 were tested in biological triplicates. Whole cell lysates in FIG. 5 were tested in technical replicates. These mixtures were pipetted (2.5-5 μl) onto dry, untreated nitrocellulose (GE Healthcare) in triplicate and allowed to dry completely before quantification. An FLA7100 Fujifilm Life Science Phosphorimager was used to detect luminescence following a 5-minute exposure of blotted nitrocellulose to phosphorimager film. Data was quantified using Fujifilm Multi Gauge software v3.0.

The subject of experiment [2] is lysates from various organisms or tissues. The experiment in a line: DRaCALA analysis of cdiGMP binding by lysates from various organisms or tissues.
Another experiment addresses T3, HisMBP-Alg44PilZ (Pseudomonas aeruginosa, UniProt Q9HY69).
T3 construct: His-MBP-Alg44PilZ was varied from 100 μM to 6 nM; made in house; host or cells: E. coli BL21(DE3)
Nature of the experiment: DRaCALA competition of cold nucleotides with 32P-cdiGMP binding to HisMBP-Alg44PilZ. Further details: species or system P. aeruginosa. To be noted: 4 nM 32P-cdiGMP. The method, then: FIG. 2. Detection of specific protein-ligand interactions by DRaCALA. (A) DRaCALA images of interactions between purified proteins (20 μM) incubated with 500 nM ^14C-cAMP, 4 nM ^32P-ATP, or 4 nM ^32P-cdiGMP. Protein-ligand mixtures were spotted on nitrocellulose and allowed to dry prior to imaging using a Fuji FLA7100 phosphorimager. Cognate protein-nucleotide combinations are indicated by arrowheads. MBP was used as a negative control. (B) DRaCALA images of competition assays assessing the ability of 1 mM of the indicated cold nucleotides to compete with binding interactions between 4 nM ^32P-cdiGMP and 2.5 μM HisMBP-Alg44PilZ. (C) Graph of fraction bound for each sample in […] with averages indicated by a horizontal bar. NC indicates no competitor. P values were determined by a Student's t-test for significant differences when compared to the no-competitor (NC) control for three independent experiments. For total intensity of each DRaCALA spot in FIGS. 2A and 2B, see Tables 1 and 2, respectively.
Radiolabeled ligands were incubated with each of the proteins and the mixtures were spotted on nitrocellulose. After spreading by capillary action, membranes were dried and quantitated by phosphorimager. […] Each of the radiolabel signals from MBP mixtures was distributed by capillary action (FIG. 2A). […] The specificity of Alg44PilZ binding to cdiGMP was further tested by competition with excess unlabeled nucleotides (400-fold molar excess relative to the Alg44PilZ protein). Alg44PilZ binding to ^32P-cdiGMP was abolished by cdiGMP, but not by cGMP, GMP, GDP, GTP, ATP, CTP or UTP as was previously described (FIG. 2B). The FB for cdiGMP was 0.31±0.07, which was reversed by competition with unlabeled cdiGMP to the background level of 0.04±0.01 (FIG. 2C).
as §2

The next experiment has as its target T4, Alg44PilZ (Pseudomonas aeruginosa, UniProt Q9HY69).
T4 construct: Previous studies of the dissociation rate of cdiGMP from Alg44PilZ
The settings on record: estimated by filter binding, previous studies; cited from earlier work.

These results are taken from patent US20130337579A1, “Methods for Determining Protein Ligand Binding” (UNIVERSITY OF MARYLAND, COLLEGE PARK, priority 2010, published 2013).

By Kd is commonly meant the equilibrium constant for the complex coming apart. Higher therefore signals lower affinity. By koff is commonly meant the rate constant with which the complex falls apart.

Where only a bound is given, the exact number is not on record here.

T1 sequence (Q9HY69 16-116): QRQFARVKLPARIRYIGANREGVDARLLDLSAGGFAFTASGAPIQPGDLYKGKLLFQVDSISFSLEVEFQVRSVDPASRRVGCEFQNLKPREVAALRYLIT
T3 sequence (Q9HY69 16-116): as above
T2 sequence (P0ACJ8 whole entry): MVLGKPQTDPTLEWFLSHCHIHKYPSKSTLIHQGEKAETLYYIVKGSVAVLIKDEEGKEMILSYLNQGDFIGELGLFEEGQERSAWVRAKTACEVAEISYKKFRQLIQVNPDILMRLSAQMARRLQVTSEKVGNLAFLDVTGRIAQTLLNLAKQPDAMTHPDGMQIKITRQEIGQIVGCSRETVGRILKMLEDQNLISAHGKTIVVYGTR
T4 sequence (Q9HY69 16-116): as the sequence (Q9HY69 16-116) above

Take `Nc1nc2c(ncn2[C@@H]2O[C@@H]3CO[P@](=O)(O)O[C@H]4[C@@H](O)[C@H](n5cnc6c(=O)[nH]c(N)nc65)O[C@@H]4CO[P@](=O)(O)O[C@H]3[C@H]2O)c(=O)[nH]1` [cdiGMP, cyclic-di-GMP]: in experiment [1], the affinity, expressed as Kd, was 1600 nM and the koff came out at 0.017 ± 0.002 s⁻¹. The “binding to Alg44PilZ (sequestration of radiolabel signal)” value in experiment [1] (20 μM purified protein, 500 nM 14C-cAMP, 4 nM 32P-ATP or 4 nM 32P-cdiGMP) is recorded as “bound”. In addition, the “time until 32P-cdiGMP binding completely competed away” value in experiment [1] (1 mM unlabeled cdiGMP) is ≤ 90 s. In experiment [1] (corresponding to koff, DRaCALA), the “half-life (t1/2)” value amounted to 0.593 ± 0.178 min. Besides, the “binding to CRP (sequestration of radiolabel signal)” value at E. coli CRP is “did not bind”. In addition, the “BC (non-specific binding)” value in experiment [2] (mammalian tissue extracts from rodent and human cell lines) is given as > 0.233. Further, the BSp entry in experiment [2] (whole cell extracts of protozoa, fungi and nematodes) is recorded as “below 1.17”. For the same compound, the “fraction bound (FB) after competition with unlabeled cdiGMP” value on HisMBP-Alg44PilZ (1 mM unlabeled cdiGMP) worked out at 0.04±0.01. Further, the “fraction bound (FB)” value on HisMBP-Alg44PilZ (no competitor) turned out to be 0.31±0.07. Moreover, the “Alg44PilZ binding to 32P-cdiGMP abolished by unlabeled nucleotide” value on HisMBP-Alg44PilZ (1 mM cold nucleotide (400-fold molar excess over protein)) is “abolished”. At Alg44PilZ, the “half-life of the complex” value is 5 min.
